One assay has as its system Ba/F3-c-KIT(D816V). In words: Proliferation inhibitory activity on Ba/F3 cell (CellTiter-Glo, 72 hours), c-KIT(D816V). The class given is cell-based. As to conditions: Mus musculus, BaF3, read-out: Ba/F3 (nM) c-KIT (D816V) (GI50 class). As for the experimental part: (§1) Ba/F3-TEL-PDGFRα(WT), Ba/F3-TEL-PDGFβ(WT), Ba/F3-c-KIT(D816V) (Kyinno, #KC-0138), c-KIT V560G/D816V, c-KIT D814Y were seeded at 3×10^3/100 μl/well in a clear bottom white 96-well plate. A culture solution containing compounds of 12 concentrations (0.00001-2 mM) serially diluted in 3 folds and the DMSO control group was added at 0.5 μl/well each to a final concentration of 0.00005-10 μM, and then incubated in a CO2 incubator at 37° C. for 72 hours. After 72 hours, the plate treated with the compound was taken out, CellTiter-Glo® Assay (Promega) solution was treated with 100 μl/well, followed by mixing well. After mixing well for about 10 minutes at room temperature, […] was measured using a microplate reader. The data were presented as percentages in proportion to treated cells based on the vehicle, GI50 (nM) values were calculated using GraphPad Prism 8.3.0 (GraphPad software Inc., San Diego).
(§2) The inhibitory activities of Ba/F3 expressing PDGFR-α, PDGFR-β, c-KIT(D816V), c-KIT V560G/D816V, and c-KIT D814Y measured as described above were measured and shown in Table 7 below (A: GI50≤200 nM; B: 200 nM<GI50≤500 nM; C: GI50>500 nM).

The subject of another assay is c-KIT V560G/D816V. Nature of the assay: Proliferation inhibitory activity on Ba/F3 cell (CellTiter-Glo, 72 hours), c-KIT V560G/D816V. As to conditions: Mus musculus, BaF3, c-KIT V560G/D816V cells, read-out: Cell (nM) c-KIT V560G/D816V (GI50 class). The class given is cell-based. As for the experimental part:
as §1, §2

Turning to `COc1cc2c(-c3ccc(NC(=O)Cc4ccc(C(F)(F)F)cc4)cc3)ncnc2cc1OCCCN1CCn2c(nnc2C(F)(F)F)C1` [Example 34, N-(4-(6-methoxy-7-(3-(3-(trifluoromethyl)-5,6-dihydro-[1,2,4]triazolo[4,3-a]pyrazin-7(8H)-yl)propoxy)quinazolin-4-yl)phenyl)-2-(4-(trifluoromethyl)phenyl)acetamide], the GI50 in the assay with Ba/F3-c-KIT(D816V) and with c-KIT V560G/D816V was at most 200 nM in each case.

As to `COc1cc2ncnc(-c3ccc(NC(=O)Cc4ccc(C(F)(F)F)cc4)cc3)c2cc1OCCCN1C[C@H]2C[C@@H]1CN2C` [Example 159, N-(4-(7-methoxy-6-(3-((1R,4R)-5-methyl-2,5-diazabicyclo[2.2.1]heptane-2-yl)propoxy)quinazolin-4-yl)phenyl)-2-(4-(trifluoromethyl)phenyl)acetamide], the results for the GI50 with Ba/F3-c-KIT(D816V) and in the assay on c-KIT V560G/D816V were at most 200 nM and 200 to 500 nM, respectively.

As for `COc1cc2c(-c3ccc(NC(=O)Cc4cccc(C(F)(F)F)c4)cc3)ncnc2cc1OCCCN1CCN(C)CC1` [Example 55, N-(4-(6-methoxy-7-(3-(4-methylpiperazin-1-yl)propoxy)quinazolin-4-yl)phenyl)-2-(3-(trifluoromethyl)phenyl)acetamide], the GI50 with Ba/F3-c-KIT(D816V) and in the assay with c-KIT V560G/D816V was at most 200 nM each time.

On to `CCN1CCC(COc2cc3ncnc(-c4ccc(NC(=O)Cc5ccc(C(F)(F)F)c(F)c5)cc4)c3cc2OC)CC1` [Example 80, N-(4-(7-((1-ethylpiperidin-4-yl)methoxy)-6-methoxyquinazolin-4-yl)phenyl)-2-(3-fluoro-4-(trifluoromethyl)phenyl)acetamide], for which the GI50 with Ba/F3-c-KIT(D816V) and in the assay with c-KIT V560G/D816V was at most 200 nM each time.

Take `COCCN1CC(Oc2cc3ncnc(-c4ccc(NC(=O)Cc5ccc(C(F)(F)F)cc5)cc4)c3cc2OC)C1` [Example 28, N-(4-(6-methoxy-7-((1-(2-methoxyethyl)azetidin-3-yl)oxy)quinazolin-4-yl)phenyl)-2-(4-(trifluoromethyl)phenyl)acetamide]: the GI50 with Ba/F3-c-KIT(D816V) was at most 200 nM; in the assay with c-KIT V560G/D816V, over 500 nM.

As to `COc1cc2c(-c3ccc(NC(=O)Cc4ccc(C(F)(F)F)cc4)cc3)ncnc2cc1OCCCN1CCN(C)C(=O)C1` [Example 143, N-(4-(6-methoxy-7-(3-(4-methyl-3-oxopiperazin-1-yl)propoxy)quinazolin-4-yl)phenyl)-2-(4-(trifluoromethyl)phenyl)acetamide], the GI50 with Ba/F3-c-KIT(D816V) and with c-KIT V560G/D816V was at most 200 nM throughout.

Turning to `COc1cc2c(-c3ccc(NC(=O)Cc4ccc(C(F)(F)F)cc4)cc3)ncnc2cc1OCCCNc1cnn(C)c1` [Example 26, N-(4-(6-methoxy-7-(3-((1-methyl-1H-pyrazol-4-yl)amino)propoxy)quinazolin-4-yl)phenyl)-2-(4-(trifluoromethyl)phenyl)acetamide], the GI50 in the assay on Ba/F3-c-KIT(D816V) is at most 200 nM.

`COc1cc2ncnc(-c3ccc(NC(=O)Cc4ccc(C(F)(F)F)cc4)cc3)c2cc1OCCCN1CC(N(C)C)C1` [Example 152, N-(4-(6-(3-(3-(dimethylamino)azetidin-1-yl)propoxy)-7-methoxyquinazolin-4-yl)phenyl)-2-(4-(trifluoromethyl)phenyl)acetamide]: the GI50 with Ba/F3-c-KIT(D816V) is at most 200 nM.

For `CCN1CC2(C1)CN(CCCOc1cc3ncnc(-c4ccc(NC(=O)Cc5ccc(C(F)(F)F)cc5)cc4)c3cc1OC)C2` [Example 21, N-(4-(7-(3-(6-ethyl-2,6-diazaspiro[3.3]heptane-2-yl)propoxy)-6-methoxyquinazolin-4-yl)phenyl)-2-(4-(trifluoromethyl)phenyl)acetamide], the GI50 with Ba/F3-c-KIT(D816V) was at most 200 nM.

Regarding `COc1cc2ncnc(-c3ccc(NC(=O)Cc4ccc(C(F)(F)F)cc4)cc3)c2cc1OC1COC1` [Example 153, N-(4-(7-methoxy-6-(oxetan-3-yloxy)quinazolin-4-yl)phenyl)-2-(4-(trifluoromethyl)phenyl)acetamide], the GI50 in the assay with Ba/F3-c-KIT(D816V) was at most 200 nM.

On to `COc1cc2ncnc(-c3ccc(NC(=O)Cc4ccc(C(F)(F)F)cc4)cc3)c2cc1OCCCNc1cnn(C)c1` [Example 155, N-(4-(7-methoxy-6-(3-((1-methyl-1H-pyrazol-4-yl)amino)propoxy)quinazolin-4-yl)phenyl)-2-(4-(trifluoromethyl)phenyl)acetamide], for which, in the assay on Ba/F3-c-KIT(D816V), the GI50 was at most 200 nM.

Take `COc1cc2c(-c3ccc(NC(=O)Cn4cc(C(C)C)nn4)cc3)ncnc2cc1OCC1CCNCC1` [Example 61, 2-(4-isopropyl-1H-1,2,3-triazole-1-yl)-N-(4-(6-methoxy-7-(piperidin-4-ylmethoxy)quinazolin-4-yl)phenyl)acetamide]: in the assay with Ba/F3-c-KIT(D816V), the GI50 was over 500 nM.

With `COc1cc2ncnc(-c3ccc(NC(=O)Cc4ccc(C(F)(F)F)cc4)cc3)c2cc1OC1CCN(C(=O)OC(C)(C)C)C1` (stereo not shown) [Example 136, tert-butyl 3-((7-methoxy-4-(4-(2-(4-(trifluoromethyl)phenyl)acetamido)phenyl)quinazolin-6-yl)oxy)pyrrolidin-1-carboxylate], in the assay on Ba/F3-c-KIT(D816V), the GI50 is at most 200 nM.

Regarding `COc1cc2c(-c3ccc(NC(=O)Cc4ccc(C(F)(F)F)cc4)cc3)ncnc2cc1OCCCN1CC2(CNC2)C1` [Example 20, N-(4-(7-(3-(2,6-diazaspiro[3.3]heptane-2-yl)propoxy)-6-methoxyquinazolin-4-yl)phenyl)-2-(4-(trifluoromethyl)phenyl)acetamide], in the assay on Ba/F3-c-KIT(D816V), the GI50 was over 500 nM.

As for `CCN1CCC(COc2cc3ncnc(-c4ccc(NC(=O)Cn5cc(C(C)C)nn5)cc4)c3cc2OC)CC1` [Example 65, N-(4-(7-((1-ethylpiperidin-4-yl)methoxy)-6-methoxyquinazolin-4-yl)phenyl)-2-(4-isopropyl-1H-1,2,3-triazole-1-yl)acetamide], the GI50 in the assay on Ba/F3-c-KIT(D816V) is at most 200 nM.

In the case of `COc1cc2c(-c3ccc(NC(=O)CC4CCNCC4)cc3)ncnc2cc1OCCCN1CCN(C)CC1` [Example 86, N-(4-(6-methoxy-7-(3-(4-methylpiperazin-1-yl)propoxy)quinazolin-4-yl)phenyl)-2-(piperidin-4-yl)acetamide], the GI50 with Ba/F3-c-KIT(D816V) is over 500 nM.

Take `COc1cc2c(-c3ccc(NC(=O)Cn4cc(C(C)(C)C)nn4)cc3)ncnc2cc1OCC1CCNCC1` [Example 62, 2-(4-(tert-butyl)-1H-1,2,3-triazole-1-yl)-N-(4-(6-methoxy-7-(piperidin-4-ylmethoxy)quinazolin-4-yl)phenyl)acetamide]: in the assay with Ba/F3-c-KIT(D816V), the GI50 was over 500 nM.

For the compound `COc1cc2ncnc(-c3ccc(NC(=O)Cc4ccc(C(F)(F)F)cc4)cc3)c2cc1OCCCN1CCN(C(C)=O)CC1` [Example 128, N-(4-(6-(3-(4-acetylpiperazin-1-yl)propoxy)-7-methoxyquinazolin-4-yl)phenyl)-2-(4-(trifluoromethyl)phenyl)acetamide], the GI50 with Ba/F3-c-KIT(D816V) was at most 200 nM.

On to `COc1cc2ncnc(-c3ccc(NC(=O)Cc4ccc(C(F)(F)F)cc4)cc3)c2cc1OCCCN1CC2(CNC2)C1` [Example 148, N-(4-(6-(3-(2,6-diazaspiro[3.3]heptane-2-yl)propoxy)-7-methoxyquinazolin-4-yl)phenyl)-2-(4-(trifluoromethyl)phenyl)acetamide], for which the GI50 in the assay with Ba/F3-c-KIT(D816V) is over 500 nM.

As for `CCN1CCC(COc2cc3ncnc(-c4ccc(NC(=O)Cn5cc(C(C)(C)C)nn5)cc4)c3cc2OC)CC1` [Example 66, 2-(4-(tert-butyl)-1H-1,2,3-triazole-1-yl)-N-(4-(7-((1-ethylpiperidin-4-yl)methoxy)-6-methoxyquinazolin-4-yl)phenyl)acetamide], in the assay with Ba/F3-c-KIT(D816V), the GI50 is at most 200 nM.

Turning to `COc1cc2c(-c3ccc(NC(=O)Cn4cc(C(C)(C)C)nn4)cc3)ncnc2cc1OCCCN1CCN(C)CC1` [Example 68, 2-(4-(tert-butyl)-1H-1,2,3-triazole-1-yl)-N-(4-(6-methoxy-7-(3-(4-methylpiperazin-1-yl)propoxy)quinazolin-4-yl)phenyl)acetamide], the GI50 with Ba/F3-c-KIT(D816V) is at most 200 nM.

`COc1cc2c(-c3ccc(NC(=O)Cc4ccc(C(F)(F)F)c(F)c4)cc3)ncnc2cc1OCC1CCNCC1` [Example 79, 2-(3-fluoro-4-(trifluoromethyl)phenyl)-N-(4-(6-methoxy-7-(piperidin-4-ylmethoxy)quinazolin-4-yl)phenyl)acetamide]: in the assay with Ba/F3-c-KIT(D816V), the GI50 was at most 200 nM.

Consider `COc1cc2ncnc(-c3ccc(NC(=O)Cc4ccc(C(F)(F)F)cc4)cc3)c2cc1OC1CN(C(=O)OC(C)(C)C)C1` [Example 135, tert-butyl 3-((7-methoxy-4-(4-(2-(4-(trifluoromethyl)phenyl)acetamido)phenyl)quinazolin-6-yl)oxy)azetidin-1-carboxylate], for which, in the assay on Ba/F3-c-KIT(D816V), the GI50 was in the range of 200 to 500 nM.

As to `COc1cc2ncnc(-c3ccc(NC(=O)Cc4ccc(C(F)(F)F)cc4)cc3)c2cc1OCC1CCNCC1` [Example 146, N-(4-(7-methoxy-6-(piperidin-4-ylmethoxy)quinazolin-4-yl)phenyl)-2-(4-(trifluoromethyl)phenyl)acetamide], in the assay with Ba/F3-c-KIT(D816V), the GI50 was over 500 nM.

For `C=CCC(=O)Nc1ccc(-c2ncnc3cc(OCCCN4CCN(C)CC4)c(OC)cc23)cc1` [Example 87, N-(4-(6-methoxy-7-(3-(4-methylpiperazin-1-yl)propoxy)quinazolin-4-yl)phenyl)but-3-enamide], in the assay on Ba/F3-c-KIT(D816V), the GI50 is at most 200 nM.

These data come from patent US20260138959A1, “QUINAZOLINE DERIVATIVE COMPOUND AND USE THEREOF” (VORONOI INC., priority 2021, published 2026).
